# Measured values reported in ChEMBL document CHEMBL5465560, “Selectivity Literature for EUbOPEN Chemogenomic Library” (2024).
# What was measured:
# [1] = biological target: Serine/threonine-protein kinase/endoribonuclease IRE1 (Homo sapiens) (UniProt O75460); assay: Selectivity interaction (KinomeScan (DiscoverX)) EUB0000229b ERN1; conditions: at 10 µM
# [2] = biological target: Calcium/calmodulin-dependent protein kinase type II subunit beta (Homo sapiens) (UniProt Q13554); assay: Selectivity interaction (KinomeScan (DiscoverX)) EUB0000045b CAMK2B
# Calcium/calmodulin-dependent protein kinase type II subunit beta (Homo sapiens), sequence (Q13554 whole entry): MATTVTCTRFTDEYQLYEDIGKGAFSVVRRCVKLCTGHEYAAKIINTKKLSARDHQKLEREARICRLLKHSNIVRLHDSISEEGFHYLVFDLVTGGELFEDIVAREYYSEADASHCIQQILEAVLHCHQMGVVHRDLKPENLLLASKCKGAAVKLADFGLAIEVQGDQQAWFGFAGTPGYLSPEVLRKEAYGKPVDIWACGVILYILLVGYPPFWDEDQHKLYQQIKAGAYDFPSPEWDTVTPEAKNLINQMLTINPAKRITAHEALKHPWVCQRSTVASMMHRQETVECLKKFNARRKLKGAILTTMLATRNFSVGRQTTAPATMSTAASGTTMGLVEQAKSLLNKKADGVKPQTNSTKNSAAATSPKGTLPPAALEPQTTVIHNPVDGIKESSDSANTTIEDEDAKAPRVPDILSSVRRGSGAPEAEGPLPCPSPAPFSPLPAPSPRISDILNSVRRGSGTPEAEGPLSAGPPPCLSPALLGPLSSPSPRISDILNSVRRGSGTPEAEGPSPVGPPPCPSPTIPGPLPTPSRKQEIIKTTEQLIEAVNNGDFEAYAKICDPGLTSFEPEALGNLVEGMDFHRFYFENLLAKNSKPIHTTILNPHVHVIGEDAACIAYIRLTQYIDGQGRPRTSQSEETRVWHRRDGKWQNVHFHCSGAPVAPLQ
# [3] = biological target: Ribosomal protein S6 kinase alpha-3 (Homo sapiens, UniProt P51812); assay: Selectivity interaction (KinomeScan (DiscoverX)) EUB0000695a RPS6KA3; conditions: at 100 nM
# Ribosomal protein S6 kinase alpha-3, sequence (P51812 whole entry): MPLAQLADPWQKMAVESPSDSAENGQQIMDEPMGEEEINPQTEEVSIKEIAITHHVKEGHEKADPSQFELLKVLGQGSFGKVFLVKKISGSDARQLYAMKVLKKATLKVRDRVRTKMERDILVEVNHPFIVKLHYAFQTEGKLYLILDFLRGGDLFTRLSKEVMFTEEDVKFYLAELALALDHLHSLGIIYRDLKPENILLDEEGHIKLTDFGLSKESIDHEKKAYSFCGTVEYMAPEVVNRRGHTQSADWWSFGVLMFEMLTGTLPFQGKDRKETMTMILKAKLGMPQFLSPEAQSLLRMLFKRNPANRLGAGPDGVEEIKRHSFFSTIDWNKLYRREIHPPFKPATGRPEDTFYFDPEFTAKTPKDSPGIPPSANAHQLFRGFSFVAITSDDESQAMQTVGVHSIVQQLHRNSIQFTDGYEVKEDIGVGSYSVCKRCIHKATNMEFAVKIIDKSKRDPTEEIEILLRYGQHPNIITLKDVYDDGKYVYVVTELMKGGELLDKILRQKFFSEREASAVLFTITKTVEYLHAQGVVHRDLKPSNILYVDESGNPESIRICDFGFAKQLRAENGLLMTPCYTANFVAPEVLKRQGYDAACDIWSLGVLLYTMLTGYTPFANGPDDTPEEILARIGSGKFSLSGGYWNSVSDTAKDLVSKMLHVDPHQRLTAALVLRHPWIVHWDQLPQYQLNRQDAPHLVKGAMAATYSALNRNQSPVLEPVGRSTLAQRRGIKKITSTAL
# [4] = biological target: T1, Tyrosine-protein kinase ITK/TSK (Homo sapiens) (UniProt Q08881); assay: Selectivity interaction (Kinase panel (Z-LYTE Assay)) EUB0001632a ITK; conditions: at 10 µM
# T1 sequence (whole entry): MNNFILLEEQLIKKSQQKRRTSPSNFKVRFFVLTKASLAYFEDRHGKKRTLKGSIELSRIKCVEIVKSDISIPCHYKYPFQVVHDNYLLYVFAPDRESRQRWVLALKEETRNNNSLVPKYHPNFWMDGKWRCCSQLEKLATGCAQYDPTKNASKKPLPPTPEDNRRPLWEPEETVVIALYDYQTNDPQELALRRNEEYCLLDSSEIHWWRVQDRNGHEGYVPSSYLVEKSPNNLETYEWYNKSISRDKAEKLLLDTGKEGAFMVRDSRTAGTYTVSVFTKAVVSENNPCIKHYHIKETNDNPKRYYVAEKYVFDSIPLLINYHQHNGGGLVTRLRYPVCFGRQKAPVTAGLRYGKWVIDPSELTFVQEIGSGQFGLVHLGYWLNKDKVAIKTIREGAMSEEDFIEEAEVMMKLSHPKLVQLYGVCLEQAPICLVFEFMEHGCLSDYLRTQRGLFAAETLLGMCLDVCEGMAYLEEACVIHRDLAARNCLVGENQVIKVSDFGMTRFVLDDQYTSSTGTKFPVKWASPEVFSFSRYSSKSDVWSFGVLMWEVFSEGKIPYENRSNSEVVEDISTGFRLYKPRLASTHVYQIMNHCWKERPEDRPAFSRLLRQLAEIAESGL
# [5] = biological target: T2, Serine/threonine-protein kinase D3 (Homo sapiens) (UniProt O94806); assay: Selectivity interaction (Kinase panel (Z-LYTE Assay)) EUB0001632a PRKD3; conditions: at 10 µM
# T2 sequence (whole entry): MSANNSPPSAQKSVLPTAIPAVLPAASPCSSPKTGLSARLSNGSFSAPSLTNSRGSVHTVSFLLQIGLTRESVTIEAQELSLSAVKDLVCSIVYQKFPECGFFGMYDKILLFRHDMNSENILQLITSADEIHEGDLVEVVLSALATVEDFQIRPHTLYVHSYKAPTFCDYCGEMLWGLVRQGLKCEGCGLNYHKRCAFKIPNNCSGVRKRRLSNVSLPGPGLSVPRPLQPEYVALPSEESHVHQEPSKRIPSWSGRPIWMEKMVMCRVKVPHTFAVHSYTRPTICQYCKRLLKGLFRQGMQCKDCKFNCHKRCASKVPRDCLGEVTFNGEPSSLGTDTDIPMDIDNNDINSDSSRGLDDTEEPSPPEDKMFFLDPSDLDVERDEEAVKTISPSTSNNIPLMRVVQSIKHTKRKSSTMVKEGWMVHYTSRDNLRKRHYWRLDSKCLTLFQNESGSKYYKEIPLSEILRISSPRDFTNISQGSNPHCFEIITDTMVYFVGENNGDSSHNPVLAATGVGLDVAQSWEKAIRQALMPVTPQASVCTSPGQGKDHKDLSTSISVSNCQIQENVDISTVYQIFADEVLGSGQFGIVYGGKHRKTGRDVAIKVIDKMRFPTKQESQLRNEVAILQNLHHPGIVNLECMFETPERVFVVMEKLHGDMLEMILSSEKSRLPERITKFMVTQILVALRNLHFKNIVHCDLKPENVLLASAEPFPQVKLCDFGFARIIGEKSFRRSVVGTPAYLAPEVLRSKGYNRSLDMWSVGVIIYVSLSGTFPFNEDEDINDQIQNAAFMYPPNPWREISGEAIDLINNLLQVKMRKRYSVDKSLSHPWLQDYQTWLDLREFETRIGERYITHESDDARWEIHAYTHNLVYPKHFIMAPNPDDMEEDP
# [6] = biological target: STE20-like serine/threonine-protein kinase (Homo sapiens, UniProt Q9H2G2); assay: Selectivity interaction (LanthaScreen Eu Kinase Binding Assay) EUB0001632a SLK; conditions: at 10 µM
# [7] = biological target: G protein-coupled receptor kinase 5 (Homo sapiens, UniProt P34947); assay: Selectivity interaction (ProQinase) EUB0000171b GRK5
# G protein-coupled receptor kinase 5, sequence (P34947 whole entry, looked up): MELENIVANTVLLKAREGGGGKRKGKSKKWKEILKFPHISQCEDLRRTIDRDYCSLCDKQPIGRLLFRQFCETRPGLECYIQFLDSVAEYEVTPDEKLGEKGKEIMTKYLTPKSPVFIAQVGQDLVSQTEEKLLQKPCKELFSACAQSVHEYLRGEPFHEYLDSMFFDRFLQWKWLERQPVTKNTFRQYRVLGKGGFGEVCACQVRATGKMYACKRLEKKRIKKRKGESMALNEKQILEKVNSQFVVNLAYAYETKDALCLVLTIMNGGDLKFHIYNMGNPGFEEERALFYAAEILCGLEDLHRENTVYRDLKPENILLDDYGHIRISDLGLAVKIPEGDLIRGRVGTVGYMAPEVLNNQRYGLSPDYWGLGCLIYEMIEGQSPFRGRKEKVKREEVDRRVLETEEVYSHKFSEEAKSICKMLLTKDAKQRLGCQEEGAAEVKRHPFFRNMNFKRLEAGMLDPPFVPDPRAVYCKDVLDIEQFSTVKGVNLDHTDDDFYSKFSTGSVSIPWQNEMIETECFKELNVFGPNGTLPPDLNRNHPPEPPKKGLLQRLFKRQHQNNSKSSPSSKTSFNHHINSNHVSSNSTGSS
# [8] = biological target: Glycogen synthase kinase-3 alpha (Homo sapiens, UniProt P49840); assay: Selectivity interaction (ProQinase) EUB0000171b GSK3A
# Glycogen synthase kinase-3 alpha, sequence (P49840 2-483 limits assumed): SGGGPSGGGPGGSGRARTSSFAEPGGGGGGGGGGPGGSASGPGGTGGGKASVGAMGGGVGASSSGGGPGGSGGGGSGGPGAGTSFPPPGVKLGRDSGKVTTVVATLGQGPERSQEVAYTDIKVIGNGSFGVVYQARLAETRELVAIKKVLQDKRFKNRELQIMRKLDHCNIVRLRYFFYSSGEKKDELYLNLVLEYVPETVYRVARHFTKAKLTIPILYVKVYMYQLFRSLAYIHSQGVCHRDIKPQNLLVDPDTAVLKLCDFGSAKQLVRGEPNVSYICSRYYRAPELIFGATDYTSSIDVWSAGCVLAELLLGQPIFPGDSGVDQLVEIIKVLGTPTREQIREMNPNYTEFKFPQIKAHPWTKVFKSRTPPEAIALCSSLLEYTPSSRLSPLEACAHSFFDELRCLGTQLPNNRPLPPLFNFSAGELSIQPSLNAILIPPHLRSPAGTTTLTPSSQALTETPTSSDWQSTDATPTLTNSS
# [9] = biological target: Rho-associated protein kinase 1 (Homo sapiens) (UniProt Q13464); assay: Selectivity interaction (ProQinase) EUB0000171b ROCK1
# Rho-associated protein kinase 1 (Homo sapiens), sequence (Q13464 2-1354 limits assumed): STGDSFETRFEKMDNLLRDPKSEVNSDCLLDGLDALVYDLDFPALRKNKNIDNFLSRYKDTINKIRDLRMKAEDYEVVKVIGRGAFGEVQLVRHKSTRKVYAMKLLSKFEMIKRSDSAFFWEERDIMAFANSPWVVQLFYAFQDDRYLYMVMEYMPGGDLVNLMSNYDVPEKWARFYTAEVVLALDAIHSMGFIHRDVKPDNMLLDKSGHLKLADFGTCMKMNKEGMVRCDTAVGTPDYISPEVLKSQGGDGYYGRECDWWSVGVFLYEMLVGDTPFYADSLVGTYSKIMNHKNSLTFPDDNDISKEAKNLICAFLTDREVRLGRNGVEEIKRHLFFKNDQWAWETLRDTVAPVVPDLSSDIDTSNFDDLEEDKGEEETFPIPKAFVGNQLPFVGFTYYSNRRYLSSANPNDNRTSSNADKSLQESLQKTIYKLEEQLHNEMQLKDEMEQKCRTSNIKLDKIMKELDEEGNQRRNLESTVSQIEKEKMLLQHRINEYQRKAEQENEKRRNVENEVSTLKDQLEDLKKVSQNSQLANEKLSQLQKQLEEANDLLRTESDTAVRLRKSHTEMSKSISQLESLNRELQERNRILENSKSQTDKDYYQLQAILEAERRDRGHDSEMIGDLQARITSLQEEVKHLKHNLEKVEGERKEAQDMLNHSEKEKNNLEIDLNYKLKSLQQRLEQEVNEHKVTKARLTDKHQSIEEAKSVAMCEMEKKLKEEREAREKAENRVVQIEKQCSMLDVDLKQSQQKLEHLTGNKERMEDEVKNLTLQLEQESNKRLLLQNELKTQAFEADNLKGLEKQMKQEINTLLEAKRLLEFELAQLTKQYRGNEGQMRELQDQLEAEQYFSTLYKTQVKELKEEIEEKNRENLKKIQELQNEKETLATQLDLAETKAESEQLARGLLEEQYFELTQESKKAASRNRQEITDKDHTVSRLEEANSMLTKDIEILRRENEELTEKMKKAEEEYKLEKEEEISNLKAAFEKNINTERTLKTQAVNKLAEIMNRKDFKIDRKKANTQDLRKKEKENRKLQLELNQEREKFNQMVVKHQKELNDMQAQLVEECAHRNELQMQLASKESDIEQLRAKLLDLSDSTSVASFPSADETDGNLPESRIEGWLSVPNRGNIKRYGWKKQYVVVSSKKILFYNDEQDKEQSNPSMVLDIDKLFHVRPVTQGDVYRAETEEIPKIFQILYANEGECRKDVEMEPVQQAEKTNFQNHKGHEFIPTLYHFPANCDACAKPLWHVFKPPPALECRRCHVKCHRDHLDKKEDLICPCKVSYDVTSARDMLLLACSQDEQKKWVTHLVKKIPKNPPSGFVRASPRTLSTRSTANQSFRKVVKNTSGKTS
# [10] = biological target: Cyclin-dependent kinase 5 (Homo sapiens, UniProt Q00535); assay: Selectivity interaction (KinomeScan (DiscoverX)) EUB0001619a CDK5; conditions: at 1 µM
# Cyclin-dependent kinase 5, sequence (Q00535 whole entry, looked up): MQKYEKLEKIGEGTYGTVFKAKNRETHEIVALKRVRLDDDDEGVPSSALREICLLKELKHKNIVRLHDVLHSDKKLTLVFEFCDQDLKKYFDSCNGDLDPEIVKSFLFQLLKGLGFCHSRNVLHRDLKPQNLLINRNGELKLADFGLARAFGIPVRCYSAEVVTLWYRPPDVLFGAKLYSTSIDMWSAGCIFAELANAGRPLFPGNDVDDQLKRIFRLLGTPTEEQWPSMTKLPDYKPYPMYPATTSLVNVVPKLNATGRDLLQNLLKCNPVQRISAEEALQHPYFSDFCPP
# [11] = biological target: Mitogen-activated protein kinase 9 (Homo sapiens, UniProt P45984); assay: Selectivity interaction (ActivX KiNativ screen (ex vivo kinase selectivity in human PBMCs)) EUB0001619a MAPK9; format: cell-based; conditions: PBMC, at 1 µM
# [12] = biological target: Tyrosine-protein kinase Lck (Homo sapiens, UniProt P06239); assay: Selectivity interaction (KinomeScan (DiscoverX)) EUB0000607a LCK; conditions: at 10 µM
# [13] = biological target: 5-hydroxytryptamine receptor 1B (Homo sapiens) (UniProt P28222); assay: Selectivity interaction (Panel of kinases, GPCRs, ion channels and transporters (enzymatic assay)) EUB0000266bCl HTR1B
# 5-hydroxytryptamine receptor 1B (Homo sapiens), sequence (P28222 whole entry): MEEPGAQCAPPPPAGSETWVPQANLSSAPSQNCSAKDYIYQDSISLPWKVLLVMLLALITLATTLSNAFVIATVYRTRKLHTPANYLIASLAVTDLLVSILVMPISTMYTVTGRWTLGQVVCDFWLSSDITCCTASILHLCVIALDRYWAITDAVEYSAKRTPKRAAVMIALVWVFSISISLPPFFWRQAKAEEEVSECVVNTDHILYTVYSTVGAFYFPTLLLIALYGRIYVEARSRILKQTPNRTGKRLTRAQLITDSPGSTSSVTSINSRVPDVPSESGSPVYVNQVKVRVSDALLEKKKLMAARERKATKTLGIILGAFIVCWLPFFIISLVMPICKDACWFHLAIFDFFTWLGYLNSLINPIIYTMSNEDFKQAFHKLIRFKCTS
# MAO-B (MAOB) = MAO-B (MAOB) (Homo sapiens, UniProt P27338); assay: Selectivity interaction (Panel of kinases, GPCRs, ion channels and transporters (enzymatic assay)) EUB0000266bCl MAOB
# [14] = biological target: Tyrosine-protein kinase Fyn (Homo sapiens) (UniProt P06241); assay: Selectivity interaction (ActivX KiNativ screen (kinase selectivity in THP-1 cell lysates)) EUB0000639a FYN; format: subcellular; conditions: lysate, at 1 µM
# [15] = biological target: Dual specificity mitogen-activated protein kinase kinase 2 (Homo sapiens) (UniProt P36507); assay: Selectivity interaction (Kinase panel (Invitrogen)) EUB0000639a MAP2K2; conditions: at 200 nM
# Dual specificity mitogen-activated protein kinase kinase 2 (Homo sapiens), sequence (P36507 whole entry): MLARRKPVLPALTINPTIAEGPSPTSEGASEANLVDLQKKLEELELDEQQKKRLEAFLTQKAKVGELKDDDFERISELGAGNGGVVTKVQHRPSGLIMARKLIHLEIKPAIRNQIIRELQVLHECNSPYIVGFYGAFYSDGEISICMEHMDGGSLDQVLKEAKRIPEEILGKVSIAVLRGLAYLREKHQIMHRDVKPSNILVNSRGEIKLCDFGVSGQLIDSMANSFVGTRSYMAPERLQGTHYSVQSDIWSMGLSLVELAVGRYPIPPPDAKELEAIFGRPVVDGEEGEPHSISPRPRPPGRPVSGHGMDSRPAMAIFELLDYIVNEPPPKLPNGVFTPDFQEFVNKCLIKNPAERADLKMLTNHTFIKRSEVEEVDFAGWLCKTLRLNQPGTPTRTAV
# [16] = biological target: Serine/threonine-protein kinase tousled-like 2 (Homo sapiens) (UniProt Q86UE8); assay: Selectivity interaction (ActivX KiNativ screen (kinase selectivity in THP-1 cell lysates)) EUB0000639a TLK2; format: subcellular; conditions: lysate, at 1 µM
# [17] = biological target: Mitogen-activated protein kinase 4 (Homo sapiens) (UniProt P31152); conditions: at 10 µM
# [18] = biological target: Ribosomal protein S6 kinase alpha-2 (Homo sapiens) (UniProt Q15349); assay: Selectivity interaction (KinomeScan (DiscoverX)) EUB0000092b RPS6KA2; conditions: at 10 µM
compound,measurement,setting,value
COc1cc(N(C)c2ccnc3ccc(C(F)(F)F)cc23)cc(OC)c1OC,% binding,[1],70%
C=CC(=O)Nc1cc(-n2c(=O)ccc3cnc4ccc(-c5ccc(NS(C)(=O)=O)cc5)cc4c32)ccc1C,% of control,[2]; at 1 µM,100%
same,% of control,[2]; at 10 µM,74%
Cc1cc(F)c(C(=O)Nc2cccc(-c3nncn3C(C)C)n2)cc1-n1cnc(C2CC2)c1,% of control,[3],46%
Cn1cc(-n2cnc3c(NCc4nc5cc(Cl)c(Cl)cc5[nH]4)nc(N4CCOCC4)nc32)cn1,% of control,[4],-0.395%
same,% of control,[5],1.79%
same,% of inhibition,[6],-1.88%
C=CC(=O)Nc1cccc(C(=O)Nc2ccc(Nc3cc(-c4[nH]c(SC)nc4C)ccn3)cc2)c1,% of control,[7]; at 1 µM,97%
same,% of control,[7]; at 5 µM,94%
same,% of control,[8]; at 1 µM,90%
same,% of control,[8]; at 5 µM,61%
same,% of control,[9]; at 1 µM,104%
same,% of control,[9]; at 5 µM,80%
N#Cc1cccc(-c2c[nH]c3ncnc(N4CCOCC4)c23)c1,% of control,[10],92%
same,% of inhibition,[11],5%
CNC(=O)Nc1ccc(-c2nc(N3CC4CCC(C3)O4)c3cnn(C4CCC5(CC4)OCCO5)c3n2)cc1,% of control,[12],100%
CCn1c(-c2nc3cc(C(=O)N4CCCC(N)C4)ccc3n2C)cc2ccccc21 (stereo not drawn),pXC50,[13],< 4.5 M
same,XC50,MAO-B (MAOB),20 µM
CC[C@@H]1[C@H](F)C(=O)N[C@@H]1COc1nccc2cc(C(N)=O)c(OC)cc12 [ZIMLOVISERTIB],% of inhibition,[14],-11%
same,% of inhibition,[15],5.73%
same,% of inhibition,[16],43.3%
CCN(CC)CCCCNc1ncc2cc(-c3cc(OC)cc(OC)c3)c(NC(=O)NC(C)(C)C)nc2n1,% of control,[17],100%
CCC(=O)N1CCN(c2ccc(-n3c(=O)ccc4cnc5ccc(-c6cnc7ccccc7c6)cc5c43)cc2C(F)(F)F)CC1,% of control,[18],85%
